Series [1] has as its system NCI-H292: human mucoepidermoid lung carcinoma cells. The series can be described thus: Cytotoxicity of metabolites, MTT assay, NCI-H292. Type of series: cell-based. Conditions: growth inhibition, 96 h incubation. How it is done:
The analysis of the cytotoxic effects of the anti-CD123 ADCs and the corresponding metabolites was carried out with various cell lines:
NCI-H292: human mucoepidermoid lung carcinoma cells, ATCC-CRL-1848, standard medium: RPMI 1640 (Biochrom; # FG1215, stab. glutamine)+10% FCS (Biochrom; # S0415).
The cells were cultivated by the standard method as stated by the American Tissue Culture Collection (ATCC) or the Leibniz-Institut DSMZ-Deutsche Sammlung von Mikroorganismen und Zellkulturen GmbH (DSMZ) for the cell lines in question.
The cells were cultivated according to the standard method using the growth media listed under C-1. The test is carried out by detaching the cells with a solution of Accutase in PBS (Biochrom AG # L2143), pelleting, resuspending in culture medium, counting and sowing into a 96-well culture plate with white bottom (Costar #3610) (NCI H292: 2500 cells/well; MOLM-13: 2000 cells/well; THP-1: 8000 cells/well; KG-1: 5000 cells/well in a total volume of 100 μl). The cells were then incubated in an incubator at 37° C. and 5% carbon dioxide. After 48 h, the medium was replaced.
The antibody drug conjugates or the metabolites in 10 μl of culture medium in concentrations from 10^−5M to 10^−13M were then pipetted to the cells (in triplicate), and the assay was then incubated in an incubator at 37° C. and 5% carbon dioxide. […] To this end, the MTT reagent was incubated with the cells for 4 h, followed by lysis of the cells overnight by addition of the detergent. The dye formed was detected at 570 nm (Infinite M1000 pro, Tecan). The measured data were used to calculate the IC50 of the growth inhibition using the DRC (dose response curve).
The proliferation of cells which were not treated with test substance but were otherwise identically treated was defined as the 100% figure.
Table 2 below lists the IC50 values of representative working examples from the assay described and the corresponding cytotoxicity data (MTT assay).
In general terms: Tetrazolium assays rely on reduction of a dye to a coloured formazan, in cell work by metabolically active cells.

The test system of the next series is KPL4. The series can be described thus: Cytotoxicity of metabolites, MTT assay, KPL4. Type of series: cell-based.
In another series the test system is Caco-2 cells. Briefly: Cell permeability, flux assay using Caco-2 cells. Type of series: in vitro ADME. Conditions: Caco-2, B to A, 2 hours.
Series [2] concerns the target T1, motor domain of the human kinesin spindle protein KSP/Eg5 (Homo sapiens, UniProt P52732).
T1 construct: The motor domain of the human kinesin spindle protein KSP/Eg5; purchased tebu-bio/Cytoskeleton Inc 027EG01-XL
T1 sequence (P52732 18-359 limits assumed): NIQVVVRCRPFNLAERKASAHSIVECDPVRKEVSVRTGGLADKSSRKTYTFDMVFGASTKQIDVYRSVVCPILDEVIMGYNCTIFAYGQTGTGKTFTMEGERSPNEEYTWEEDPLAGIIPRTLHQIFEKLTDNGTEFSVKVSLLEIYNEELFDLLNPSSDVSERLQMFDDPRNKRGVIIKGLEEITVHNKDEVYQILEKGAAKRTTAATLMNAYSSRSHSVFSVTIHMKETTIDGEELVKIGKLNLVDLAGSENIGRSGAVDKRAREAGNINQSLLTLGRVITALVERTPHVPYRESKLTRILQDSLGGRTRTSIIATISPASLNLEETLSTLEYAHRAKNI
Briefly: Inhibition of the kinesin spindle protein KSP/Eg5 (ATPase activity, malachite green). Type of series: biochemical. Conditions: 10 nM KSP/Eg5, microtubuli, 500 μM ATP, 2 h at RT.
Description: C-1b Determination of the Inhibition of the Kinesin Spindle Protein KSP/Eg5 by Selected Examples
The motor domain of the human kinesin spindle protein KSP/Eg5 (tebu-bio/Cytoskeleton Inc, No. 027EG01-XL) was incubated in a concentration of 10 nM with microtubuli (bovine or porcine, tebu-bio/Cytoskeleton Inc) stabilized with 50 μg/ml taxol (Sigma No. T7191-5MG) for 5 min at RT in 15 mM PIPES, pH 6.8 (5 mM MgCl2 and 10 mM DTT, Sigma). […] Incubation was at RT for 2 h. ATPase activity was detected by detecting the inorganic phosphate formed using malachite green (Biomol). […] The positive controls used were monastrol (Sigma, M8515-1 mg) and ispinesib (AdooQ Bioscience A10486). The individual data of the dose-activity curve are eight-fold determinations. The IC50 values are means of two independent experiments.

The nature of series [3]: Cell permeability, flux assay using Caco-2 cells. Type of series: in vitro ADME. Conditions: human. A general note: Caco-2 cells form a polarised layer with tight junctions and transporters.

Data on six compounds can be found in US10744205B2, “Antibody drug conjugates of kinesin spindel protein (KSP) inhibitors with anti-CD123-antibodies” (Bayer Pharma Aktiengesellschaft, priority 2015, dated 2020).

“N-{(2S)-2-Amino-4-[{(1R)-1-[1-benzyl-4-(2,5-difluorophenyl)-1H-pyrrol-2-yl]-2,2-dimethyl propyl}(glycoloyl)amino]butanoyl}-L-glutamic acid/trifluoroacetic acid (1:1) [Example M25]”: the IC50 (in series [1]; in the series with KPL4 (growth inhibition)) was at least 500 nM each time. In addition, the “Papp (B-A)” value in the series on Caco-2 cells was determined as 0.81 ×10⁻⁶ cm/s.

For the compound `CC(C)(C)[C@H](c1cc(-c2cc(F)ccc2F)cn1Cc1ccccc1)N(CC[C@H](N)C(=O)NCCC(=O)N[C@@H](CCC(=O)O)C(=O)O)C(=O)CO` [Example M23, N-{(2S)-2-Amino-4-[{(1R)-1-[1-benzyl-4-(2,5-difluorophenyl)-1H-pyrrol-2-yl]-2,2-dimethylpropyl}(glycoloyl)amino]butanoyl}-beta-alanyl-L-glutamic acid/trifluoroacetic acid (1:1)], the IC50 – broadly, the point on the concentration scale where inhibition reaches its midpoint – in series [1] (Homo sapiens, NCI-H292, 96 h) is at least 500 nM; with KPL4 (KPL4, growth inhibition), at least 500 nM.

On to `CC(C)(C)[C@H](c1cc(-c2cc(F)ccc2F)cn1Cc1ccccc1)N(CC[C@H](N)C(=O)NCCC(=O)N[C@H](CCC(=O)O)C(=O)O)C(=O)CO` [Example M24, N-{(2S)-2-Amino-4-[{(1R)-1-[1-benzyl-4-(2,5-difluorophenyl)-1H-pyrrol-2-yl]-2,2-dimethylpropyl}(glycoloyl)amino]butanoyl}-beta-alanyl-D-glutamic acid/trifluoroacetic acid (1:1)], for which the IC50 in the series with KPL4 (KPL4, growth inhibition) was at least 500 nM.

For the compound `CC(C)(C)[C@H](c1cc(-c2cc(F)ccc2F)cn1Cc1ccccc1)N(CC[C@H](N)C(=O)NCCNC(=O)CN1C(=O)CC(SC[C@H](N)C(=O)O)C1=O)C(=O)CO` (stereo partly drawn) [Example M1, S-[1-(2-{[2-({(2S)-2-Amino-4-[{(1R)-1-[1-benzyl-4-(2,5-difluorophenyl)-1H-pyrrol-2-yl]-2,2-dimethylpropyl}(glycoloyl)amino]butanoyl}amino)ethyl]amino}-2-oxoethyl)-2,5-dioxopyrrolidin-3-yl]-L-cysteine/trifluoroacetic acid (1:1)], the 50% inhibitory concentration (IC50) was at least 500 nM in series [1] (Homo sapiens, NCI-H292, 96 h) and at least 500 nM with KPL4 (KPL4, growth inhibition).

In series [2], `CC(C)(C)[C@H](c1cc(-c2cc(F)ccc2F)cn1Cc1ccccc1)N(CCCN)C(=O)CSC[C@H](NC(=O)CCOCCOCCOCCOCCNC(=O)CNC(=O)[C@H](CC(=O)O)SC[C@H](N)C(=O)O)C(=O)O.O=C(O)C(F)(F)F.O=C(O)C(F)(F)F` [Example M21, (2R,24S,27R)-27-Amino-2-[({2-[(3-aminopropyl){(1R)-1-[1-benzyl-4-(2,5-difluorophenyl)-1H-pyrrol-2-yl]-2,2-dimethylpropyl}amino]-2-oxoethyl}sulphanyl)methyl]-24-(carboxymethyl)-4,20,23-trioxo-7,10,13,16-tetraoxa-25-thia-3,19,22-triazaoctacosane-1,28-dioic acid trifluoroacetic acid (1:2)] gave an IC50 of 2.31 nM. Also, the Papp B→A (in general, how fast a substance crosses the layer from the basolateral side) at 2 h in series [3] (Caco-2, B to A, 2 hours) was 0.05 ×10⁻⁶ cm/s. In series [3] (Caco-2, ratio of Papp (B-A) to Papp (A-B)), the efflux ratio (usually the permeability from basolateral to apical divided by that in the opposite direction, in the common usage) at 2 h was found to be 1.5.

Turning to “(1R,4R,27R,33R)-1-Amino-32-(3-aminopropyl)-33-[1-benzyl-4-(2,5-difluorophenyl)-1H-pyrrol-2-yl]-34,34-dimethyl-6,9,25,31-tetraoxo-13,16,19,22-tetraoxa-3,29-dithia-7,10,26,32-tetraazapentatriacontane-1,4,27-tricarboxylic acid/trifluoroacetic acid (1:2) [Example M20]”, the IC50 in series [1] stood at 149 nM; with KPL4 (growth inhibition), 213 nM.
